22 compounds from patent US12528761B2, “Thyromimetics” (Autobahn Therapeutics, Inc., priority 2020, dated 2026) can be followed below.

Test [1] has as its target T1, TRα (Homo sapiens, UniProt P10827).
T1 construct: expressed in transfected cells; host or cells: HEK293
T1 sequence (P10827 1-410 isoform P10827-2): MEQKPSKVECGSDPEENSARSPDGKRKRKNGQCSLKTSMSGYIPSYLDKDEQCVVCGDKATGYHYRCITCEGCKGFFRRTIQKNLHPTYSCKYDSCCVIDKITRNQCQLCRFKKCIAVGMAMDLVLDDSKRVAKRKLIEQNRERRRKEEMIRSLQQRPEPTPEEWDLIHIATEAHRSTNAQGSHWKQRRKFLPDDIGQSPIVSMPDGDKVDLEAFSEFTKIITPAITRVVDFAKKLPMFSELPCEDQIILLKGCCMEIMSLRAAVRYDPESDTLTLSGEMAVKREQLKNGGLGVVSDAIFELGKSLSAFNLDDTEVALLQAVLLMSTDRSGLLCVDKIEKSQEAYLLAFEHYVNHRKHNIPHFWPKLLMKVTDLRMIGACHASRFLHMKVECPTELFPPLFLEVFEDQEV
Description: TR reporter-gene assay (Gal4 DBD hybrid, luciferase), TRα. The test is classed as cell-based. As for the experimental part: (§1) Compounds were tested for thyroid-hormone receptor activity using TR reporter-gene assays. Reporter cells used in the assays express a TR-receptor hybrid (either TRα or TRβ) in which the native N-terminal DNA binding domain (DBD) has been replaced with that of the yeast Gal4 DBD. The reporter gene, firefly luciferase, is functionally linked to the Gal4 upstream activation sequence (UAS). Both cell lines were derived from human embryonic kidney (HEK293).
(§2) Step 1: A suspension of reporter cells was prepared in cell recovery medium containing 10% charcoal-stripped FBS, and dispensed into assay plates. The plates were pre-incubated for 6 hours in a cell culture incubator (37° C./5% CO2/85% humidity).
(§3) These intermediate stocks were subsequently diluted directly into compound screening medium containing 10% charcoal-stripped FBS to generate “2×-concentration” treatment media (containing 0.2, 0.4 or 0.8% DMSO).
(§4) Step 3: At the end of the pre-incubation period, culture media were discarded from the assay plates, and all wells received 100 μl of compound screening medium. 100 μl of each of the previously prepared “2×-concentration” treatment media were dispensed into duplicate assay wells, thereby achieving the desired final treatment concentrations. The final concentration of DMSO in all assay wells was 0.1, 0.2 or 0.4%. Assay plates were incubated for 24 hr in a cell culture incubator (37° C./5% CO2/85% humidity).
(§5) Step 4: At the 24 h assay endpoint, treatment media were discarded and 100 µl/well of luciferase detection reagent was added. Relative luminometer units (RLUs) were quantified from each assay well.

Test [2] addresses T2, TRβ (Homo sapiens, UniProt P10828).
T2 construct: expressed in transfected cells; host or cells: HEK293
T2 sequence (P10828 217-461 limits assumed): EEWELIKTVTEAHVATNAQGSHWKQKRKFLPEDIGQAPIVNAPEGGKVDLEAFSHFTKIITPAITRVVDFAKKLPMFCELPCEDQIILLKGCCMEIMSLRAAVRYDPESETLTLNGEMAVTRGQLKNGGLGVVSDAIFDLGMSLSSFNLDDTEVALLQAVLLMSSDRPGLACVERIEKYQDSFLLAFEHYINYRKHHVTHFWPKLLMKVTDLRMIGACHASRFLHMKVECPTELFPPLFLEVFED
Description: TR reporter-gene assay (Gal4 DBD hybrid, luciferase), TRβ. To be noted: for T3-SI (selectivity index, EC50 (TRα)/EC50 (TRβ)): class symbols. The test is classed as cell-based. As for the experimental part: as §1, §2, §3, §4, §5

The mark [3] stands for this setting: HEK293-derived reporter cells, 24 hr treatment, read-out: TRα EC50.
Where [4] appears, read: HEK293-derived reporter cells, 24 hr treatment, read-out: TRβ EC50.

Where two headings read alike, the source gives them in different places. Where only a bound is given, the exact number is not on record here.

As usually defined, the EC50 is the concentration at which the effect is half-maximal. As to `CC(C)c1cc(Cc2c(Cl)cc(C=C(C(=O)O)C(=O)O)cc2Cl)ccc1O` [Compound 108, 2-(3,5-dichloro-4-(4-hydroxy-3-isopropylbenzyl)benzylidene)malonic acid], the EC50 is 100 to 1000 nM in test [1] (setting [3]) and more than 1000 nM in test [2] (setting [4]). The “T3-SI (selectivity index, EC50 (TRα)/EC50 (TRβ))” value in test [2] is “+ (T3-SI ≤ 3×)”.
The like results for `CC(C)c1c(O)ccc(Cc2c(Cl)cc(CNCC(=O)O)cc2Cl)c1F` [Compound 110, (3,5-dichloro-4-(2-fluoro-4-hydroxy-3-isopropylbenzyl)benzyl)glycine] were, in that order, 10 to 100 nM, 100 to 1000 nM and “+ (T3-SI ≤ 3×)”.
The like results for `CC(C)c1cc(Cc2c(Cl)cc(CS(=O)(=O)CC(=O)O)cc2Cl)ccc1O` [Compound 97, 2-((3,5-dichloro-4-(4-hydroxy-3-isopropylbenzyl)benzyl)sulfonyl)acetic acid] were, in that order, more than 1000 nM, more than 1000 nM and “++ (3× < T3-SI ≤ 30×)”.
The like results for `Cc1cc(SCC(=O)O)c(F)c(Cl)c1Cc1ccc(O)c(C(C)C)c1` [Compound 225, 2-((3-chloro-2-fluoro-4-(4-hydroxy-3-isopropylbenzyl)-5-methylphenyl)thio)acetic acid] were, in that order, 100 to 1000 nM, 100 to 1000 nM and “++ (3× < T3-SI ≤ 30×)”.
As to `CCOC(=O)/C(=C\c1cc(Cl)c(Cc2ccc(O)c(C(C)C)c2)c(Cl)c1)C(=O)O` [Compound 90, 3-(3,5-dichloro-4-(4-hydroxy-3-isopropylbenzyl)phenyl)-2-(ethoxycarbonyl)acrylic acid], the half-maximal effective concentration (EC50) in test [1] (setting [3]) and in test [2] (setting [4]) was more than 1000 nM throughout. In addition, the “T3-SI (selectivity index, EC50 (TRα)/EC50 (TRβ))” value in test [2] is “++ (3× < T3-SI ≤ 30×)”.
In the case of `CC(C)c1cc(Cc2c(Cl)cc(SCC(=O)O)cc2Cl)ccc1O` [Compound 91, 2-((3,5-dichloro-4-(4-hydroxy-3-isopropylbenzyl)phenyl)thio)acetic acid], the half-maximal effective concentration (EC50) in test [1] (setting [3]) and in test [2] (setting [4]) was 100 to 1000 nM throughout. Besides, the “T3-SI (selectivity index, EC50 (TRα)/EC50 (TRβ))” value in test [2] was “++ (3× < T3-SI ≤ 30×)”.
On to `CC(C)c1cc(Cc2c(Cl)cc(/C=C/CC(=O)O)cc2Cl)ccc1O` [Compound 15, (E)-4-(3,5-dichloro-4-(4-hydroxy-3-isopropylbenzyl)phenyl)but-3-enoic acid], for which the EC50 in test [1] (setting [3]) and in test [2] (setting [4]) was 10 to 100 nM throughout. Moreover, the “T3-SI (selectivity index, EC50 (TRα)/EC50 (TRβ))” value in test [2] is “++ (3× < T3-SI ≤ 30×)”.
Consider `CC(C)c1cc(Cc2c(Cl)cc(NCCC(=O)O)cc2Cl)ccc1O` [Compound 103, 3-((3,5-dichloro-4-(4-hydroxy-3-isopropylbenzyl)phenyl)amino)propanoic acid], for which the EC50 in test [1] (setting [3]) and in test [2] (setting [4]) was 10 to 100 nM throughout. In addition, in test [2], the “T3-SI (selectivity index, EC50 (TRα)/EC50 (TRβ))” value is “++ (3× < T3-SI ≤ 30×)”.
On to `C[Si](C)(C)c1c(O)ccc(Cc2c(Cl)cc(CC(=O)O)c(F)c2Cl)c1F` [Compound 151, 2-(3,5-dichloro-2-fluoro-4-(2-fluoro-4-hydroxy-3-(trimethylsilyl)benzyl)phenyl)acetic acid], for which, in test [1], the EC50 was 100 to 1000 nM. In test [2], the EC50 is 100 to 1000 nM and the “T3-SI (selectivity index, EC50 (TRα)/EC50 (TRβ))” value was “++ (3× < T3-SI ≤ 30×)”.
For `Cc1cc(/C=C/C(=O)O)cc(Cl)c1Cc1ccc(O)c(C(C)C)c1F` [Compound 250, (E)-3-(3-chloro-4-(2-fluoro-4-hydroxy-3-isopropylbenzyl)-5-methylphenyl)acrylic acid], the concentration giving a half-maximal response (EC50) in test [1] (setting [3]) and in test [2] (setting [4]) was 10 to 100 nM each time. Further, the “T3-SI (selectivity index, EC50 (TRα)/EC50 (TRβ))” value in test [2] is “+ (T3-SI ≤ 3×)”.
Consider `CC(C)c1c(O)ccc(Cc2c(Cl)cc(CNCC(=O)O)c(F)c2Cl)c1F` [Compound 153, (3,5-dichloro-2-fluoro-4-(2-fluoro-4-hydroxy-3-isopropylbenzyl)benzyl)glycine], for which the 50% effective concentration (EC50) in test [1] (setting [3]) and in test [2] (setting [4]) was 10 to 100 nM each time. Also, in test [2], the “T3-SI (selectivity index, EC50 (TRα)/EC50 (TRβ))” value was “++ (3× < T3-SI ≤ 30×)”.
Consider `CC(C)c1cc(Cc2c(Cl)cc(SCC(=O)O)c(F)c2Cl)ccc1O` [Compound 204, 2-((3,5-dichloro-2-fluoro-4-(4-hydroxy-3-isopropylbenzyl)phenyl)thio)acetic acid], for which the concentration for a half-maximal effect (EC50) in test [1] (setting [3]) and in test [2] (setting [4]) was 10 to 100 nM throughout. Also, the “T3-SI (selectivity index, EC50 (TRα)/EC50 (TRβ))” value in test [2] is “++ (3× < T3-SI ≤ 30×)”.
Turning to `C/C(=C\c1cc(C)c(Cc2ccc(O)c(C(C)C)c2F)c(Cl)c1)C(=O)O` [Compound 248, (E)-3-(3-chloro-4-(2-fluoro-4-hydroxy-3-isopropylbenzyl)-5-methylphenyl)-2-methylacrylic acid], the concentration for a half-maximal effect (EC50) in test [1] (setting [3]) and in test [2] (setting [4]) was 10 to 100 nM each time. For the same compound, in test [2], the “T3-SI (selectivity index, EC50 (TRα)/EC50 (TRβ))” value was “+ (T3-SI ≤ 3×)”.
As for `C/C(=C\c1cc(Cl)c(Cc2ccc(O)c(C(C)C)c2F)c(Cl)c1)C(=O)O` [Compound 205, (E)-3-(3,5-dichloro-4-(2-fluoro-4-hydroxy-3-isopropylbenzyl)phenyl)-2-methylacrylic acid], the EC50 in test [1] (setting [3]) and in test [2] (setting [4]) was less than 10 nM each time. Moreover, the “T3-SI (selectivity index, EC50 (TRα)/EC50 (TRβ))” value in test [2] was “++ (3× < T3-SI ≤ 30×)”.
Regarding `Cc1cc([S+]([O-])CC(=O)O)cc(Cl)c1Cc1ccc(O)c(C(C)C)c1` (stereo not drawn) [Compound 244, 2-((3-chloro-4-(4-hydroxy-3-isopropylbenzyl)-5-methylphenyl)sulfinyl)acetic acid], the concentration for a half-maximal effect (EC50) in test [1] (setting [3]) and in test [2] (setting [4]) was more than 1000 nM in each case. Also, the “T3-SI (selectivity index, EC50 (TRα)/EC50 (TRβ))” value in test [2] was “++ (3× < T3-SI ≤ 30×)”.
As to `CC(C)c1cc(Cc2c(Cl)cc(CNCC(=O)O)cc2Cl)ccc1O` [Compound 30, (3,5-dichloro-4-(4-hydroxy-3-isopropylbenzyl)benzyl)glycine], the 50% effective concentration (EC50) in test [1] (setting [3]) and in test [2] (setting [4]) was 100 to 1000 nM each time. Also, the “T3-SI (selectivity index, EC50 (TRα)/EC50 (TRβ))” value in test [2] was “+ (T3-SI ≤ 3×)”.
Consider `CC(C)c1cc(Cc2c(Cl)cc(C[S+]([O-])CC(=O)O)cc2Cl)ccc1O` (stereo not drawn) [Compound 96, 2-((3,5-dichloro-4-(4-hydroxy-3-isopropylbenzyl)benzyl)sulfinyl)acetic acid], for which the 50% effective concentration (EC50) in test [1] (setting [3]) and in test [2] (setting [4]) was more than 1000 nM each time. For the same compound, in test [2], the “T3-SI (selectivity index, EC50 (TRα)/EC50 (TRβ))” value was “+ (T3-SI ≤ 3×)”.
Take `Cc1cc(NCC(=O)O)c(F)c(Cl)c1Cc1ccc(O)c(C(C)C)c1` [Compound 222, (3-chloro-2-fluoro-4-(4-hydroxy-3-isopropylbenzyl)-5-methylphenyl)glycine]: the concentration giving a half-maximal response (EC50) in test [1] (setting [3]) and in test [2] (setting [4]) was 10 to 100 nM in each case. For the same compound, the “T3-SI (selectivity index, EC50 (TRα)/EC50 (TRβ))” value in test [2] was “++ (3× < T3-SI ≤ 30×)”.
`Cc1cc(CSCC(=O)O)cc(Cl)c1Cc1ccc(O)c(C(C)C)c1` [Compound 124, 2-((3-chloro-4-(4-hydroxy-3-isopropylbenzyl)-5-methylbenzyl)thio)acetic acid]: the EC50 in test [1] (setting [3]) and in test [2] (setting [4]) was 10 to 100 nM each time. Further, in test [2], the “T3-SI (selectivity index, EC50 (TRα)/EC50 (TRβ))” value is “++ (3× < T3-SI ≤ 30×)”.
For `CC(C)c1c(O)ccc(Cc2c(Cl)cc(OCCCCC(=O)O)cc2Cl)c1F` [Compound 54, 5-(3,5-dichloro-4-(2-fluoro-4-hydroxy-3-isopropylbenzyl)phenoxy)pentanoic acid], the EC50 in test [1] (setting [3]) and in test [2] (setting [4]) was 10 to 100 nM in each case. In test [2], the “T3-SI (selectivity index, EC50 (TRα)/EC50 (TRβ))” value is “+ (T3-SI ≤ 3×)”.
Take `CC(C)c1c(O)ccc(Cc2c(Cl)cc(CC(=O)O)c(F)c2Cl)c1F` [Compound 69, 2-(3,5-dichloro-2-fluoro-4-(2-fluoro-4-hydroxy-3-isopropylbenzyl)phenyl)acetic acid]: the values for the EC50 in test [1] (setting [3]) and in test [2] (setting [4]) were 10 to 100 nM and less than 10 nM, respectively. In addition, the “T3-SI (selectivity index, EC50 (TRα)/EC50 (TRβ))” value in test [2] was “++ (3× < T3-SI ≤ 30×)”.
The like results for `CON(C)C(=O)CCc1cc(Cl)c(Cc2ccc(O)c(C(C)C)c2F)c(Cl)c1` [Compound 107, 3-(3,5-dichloro-4-(2-fluoro-4-hydroxy-3-isopropylbenzyl)phenyl)-N-methoxy-N-methylpropanamide] were, in that order, 100 to 1000 nM, 100 to 1000 nM and “++ (3× < T3-SI ≤ 30×)”.
